Data taken from paper PMC12162873, “Modulating phosphatase DUSP22 with BML-260 ameliorates skeletal muscle wasting via Akt independent JNK-FOXO3a repression” (EMBO Molecular Medicine, 2025).
Several values for one entry are separate records, joined by “and”; a condition that tells them apart may be missing. Identical values can stand only once.

Experiments:
C57BL/6 mice = assay: Hind limb immobilization model, BML-260 treatment; assay type: in vivo, mouse
Experimental: Western blotting was carried out using the previously published protocol (Lee et al, [2020]). The NIH imaging software Image J 64 was used for densitometry analysis of the gel bands. The primary and secondary antibodies used in this study are shown in the reagent and tools table. Chemiluminescence was used to detect the secondary antibody.
To immobilize the hind limbs, 14-week-old male C57BL/6 mice were anesthetized with isoflurane and both hind limbs were fixed with plastic EP-tubes (Axygen, MCT-175-C). To prevent the tubes from slipping, the junction between the tubes and the hind limbs were wrapped with insulating tape. BML-260 was treated as follows: (1) vehicle alone (5% DMSO + 5% tween 80) and (2) 5 mg/kg BML-260 (n = 3 per group). The mice were monitored daily and sacrificed after 14 days.
Mice were anesthetized using ketamine (22 mg/kg; Yuhan, Republic of Korea) and xylazine (10 mg/kg; Bayer, Republic of Korea) in saline by IP injection. The quadriceps, gastrocnemius, soleus and TA muscles were then dissected and weighed. For histological analysis, the muscles were fixed by overnight incubation with 4% paraformaldehyde in PBS pH 7.4 at 4 °C. Paraffin sectioning and H&E staining were provided by the Animal Housing Facility, Gwangju Institute of Science and Technology, Republic of Korea (5 µm muscle sections using a Thermo Scientific HistoStar (Thermofisher). H&E staining was carried out with a kit (Merck, Germany)). For immunohistochemistry, TA muscle sections were permeabilized for 15 min (PBS with 0.5% Triton X-100), blocked for 1 h (5% BSA) and incubated with the primary antibody overnight at 4 °C (a list of primary and secondary antibodies used in this study are provided in Appendix Tables S4 and S5, respectively). After washing with PBS 3 times for 5 min, the sections were incubated with the secondary antibody at RT for 1 h. The nuclei were counterstained with DAPI in ProLong™ Gold Antifade Mountant (Invitrogen, P36935). Digital images were acquired with Leica DM 2500 (Leica Microsystems). Cross sectional area (CSA) and fiber size distribution was measured using the NIH imaging software Image J 64. To CSA and size distribution of different fiber types was calculated in 4 muscle section as follows: type 2 A: 30–40 fibers measured; type 2B: at least 100 fibers measured; type 2X: 30–40 fibers measured.

adipocytes = tested on: adipocytes; parameters: method as in Feng et al, 2019; details: ref Feng et al, 2019; cited from earlier work
C57BL/6J mice = assay: Dex treatment mouse model of skeletal muscle atrophy, BML-260 treatment; assay type: in vivo; details: TA muscle of C57BL/6 mice treated with Dex, Vehicle average = 1, n = 4
[1] = 5 mg/kg BML-260, 14 days immobilization
[2] = TA of immobilized mice (Fig EV4), Sham average = 1
[3] = TA of immobilized mice (Fig EV4), Sham average = 1, individual animals

Compound	DUSP22 levels in TA and gastrocnemius muscles, western blot (C57BL/6 mice; [1])	MYH4 (myosin heavy chain 2B) in TA muscle, western blot (C57BL/6 mice; [1])	atrogin-1 and MuRF-1 expression in immobilized TA, western blot (C57BL/6 mice; [1])	phosphorylation level of JNK in TA muscle, western blot (C57BL/6 mice; [1])	DUSP22, western blot quantification, Average (C57BL/6 mice; SHAM average = 1)	DUSP22, western blot quantification (C57BL/6 mice; SHAM average = 1, individual animals)	DUSP22, western blot quantification, Average (C57BL/6 mice; TA muscle of immobilized mice (Fig EV5), Sham average = 1)	DUSP22, western blot quantification (C57BL/6 mice; TA muscle of immobilized mice (Fig EV5), Sham average = 1, individual animals)	p-jnk/jnk, western blot quantification, Average (C57BL/6 mice; TA muscle of immobilized mice, Sham average = 1)	p-jnk/jnk, western blot quantification (C57BL/6 mice; TA muscle of immobilized mice, Sham average = 1, individual animals)	DUSP22, western blot quantification, Average (C57BL/6 mice; [2])	MYH4, western blot quantification, Average (C57BL/6 mice; [2])	DUSP22, western blot quantification (C57BL/6 mice; [3])	MYH4, western blot quantification (C57BL/6 mice; [3])	expression of uncoupling protein-1 (UCP-1) (adipocytes)	DUSP22 expression, qPCR, Average (C57BL/6J mice)
O=C(O)c1ccc(N2C(=O)C(=Cc3ccccc3)SC2=S)cc1 (stereo in doubt) [BML-260]	reduced DUSP22 levels	upregulation	downregulated	reduction	0.5293	0.9793 and 0.6244 and 0.3303 and 0.3563 and 0.317 and 0.5687	1.168	1.324 and 0.9536 and 0.9932 and 1.399	0.4787	0.7134 and 0.5569 and 0.2233 and 0.4213	1.587	0.928	1.411 and 2.335 and 2.043 and 0.8602 and 1.621 and 1.251	1.0151 and 0.5864 and 0.9197 and 0.796 and 1.189 and 1.062	upregulates	
C[C@@H]1C[C@H]2[C@@H]3CCC4=CC(=O)C=C[C@]4(C)[C@@]3(F)[C@@H](O)C[C@]2(C)[C@@]1(O)C(=O)CO [Dex, dexamethasone]																1.655
